Experimental data from ChEMBL document CHEMBL5465560, “Selectivity Literature for EUbOPEN Chemogenomic Library” (2024).
One block for each compound: values may come before it.

How the values were obtained:
[1] = target: Cell division cycle 7-related protein kinase (Homo sapiens, UniProt O00311); assay: Selectivity interaction (Kinase panel (Enzyme activity assay)) EUB0000612a CDC7
[2] = target: Mitogen-activated protein kinase 14 (Homo sapiens, UniProt Q16539); assay: Selectivity interaction (KinomeScan (DiscoverX)) EUB0001619a MAPK14; conditions: at 1 µM
Mitogen-activated protein kinase 14, sequence (Q16539 whole entry): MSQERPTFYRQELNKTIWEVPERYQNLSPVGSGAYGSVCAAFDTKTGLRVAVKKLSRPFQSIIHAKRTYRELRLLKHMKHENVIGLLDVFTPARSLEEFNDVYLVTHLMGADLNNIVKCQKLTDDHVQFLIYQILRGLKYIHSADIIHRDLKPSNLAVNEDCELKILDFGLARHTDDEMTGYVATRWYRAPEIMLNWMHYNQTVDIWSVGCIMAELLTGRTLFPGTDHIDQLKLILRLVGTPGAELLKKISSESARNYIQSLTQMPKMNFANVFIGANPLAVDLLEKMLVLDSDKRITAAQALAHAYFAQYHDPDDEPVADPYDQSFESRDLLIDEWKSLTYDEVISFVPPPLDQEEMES

[3] = target: T1, Serine/threonine-protein kinase LATS1 (Homo sapiens) (UniProt O95835); assay: Selectivity interaction (KinomeScan (DiscoverX)) EUB0000618a LATS1; conditions: at 10 µM
T1 sequence (whole entry): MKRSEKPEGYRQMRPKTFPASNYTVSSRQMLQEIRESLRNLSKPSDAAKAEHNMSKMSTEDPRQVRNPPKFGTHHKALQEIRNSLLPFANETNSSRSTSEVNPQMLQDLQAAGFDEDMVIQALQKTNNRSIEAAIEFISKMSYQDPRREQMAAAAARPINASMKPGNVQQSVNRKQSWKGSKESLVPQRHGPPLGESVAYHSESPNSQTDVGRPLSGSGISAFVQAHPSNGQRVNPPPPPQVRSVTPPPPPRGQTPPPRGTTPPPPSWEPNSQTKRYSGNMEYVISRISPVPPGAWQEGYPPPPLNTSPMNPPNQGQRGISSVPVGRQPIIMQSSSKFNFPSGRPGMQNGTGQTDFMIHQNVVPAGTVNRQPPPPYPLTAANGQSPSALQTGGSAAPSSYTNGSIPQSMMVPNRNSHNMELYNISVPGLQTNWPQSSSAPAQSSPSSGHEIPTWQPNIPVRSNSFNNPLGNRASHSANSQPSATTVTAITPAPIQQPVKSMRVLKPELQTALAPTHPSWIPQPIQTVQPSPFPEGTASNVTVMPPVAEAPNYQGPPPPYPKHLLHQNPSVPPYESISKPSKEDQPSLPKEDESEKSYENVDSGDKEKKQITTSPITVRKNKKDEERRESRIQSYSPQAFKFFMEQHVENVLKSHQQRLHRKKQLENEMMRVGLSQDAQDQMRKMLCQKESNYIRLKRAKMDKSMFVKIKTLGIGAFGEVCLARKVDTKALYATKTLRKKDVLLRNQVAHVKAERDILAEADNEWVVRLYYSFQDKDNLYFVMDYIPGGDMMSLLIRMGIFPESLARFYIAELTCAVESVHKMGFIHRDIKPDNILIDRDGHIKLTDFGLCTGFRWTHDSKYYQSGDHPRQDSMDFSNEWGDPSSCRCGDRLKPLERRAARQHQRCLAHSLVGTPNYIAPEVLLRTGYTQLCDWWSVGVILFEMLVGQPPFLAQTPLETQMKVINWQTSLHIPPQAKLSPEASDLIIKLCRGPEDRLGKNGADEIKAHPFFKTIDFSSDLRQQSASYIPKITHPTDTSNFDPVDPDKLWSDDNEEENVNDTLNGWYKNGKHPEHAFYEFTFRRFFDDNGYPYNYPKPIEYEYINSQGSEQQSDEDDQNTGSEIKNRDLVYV

D(2) dopamine receptor = D(2) dopamine receptor (Homo sapiens, UniProt P14416); assay: Selectivity interaction (Panel of kinases, GPCRs, ion channels and transporters (enzymatic assay)) EUB0000266bCl DRD2
D(2) dopamine receptor, sequence (P14416 whole entry): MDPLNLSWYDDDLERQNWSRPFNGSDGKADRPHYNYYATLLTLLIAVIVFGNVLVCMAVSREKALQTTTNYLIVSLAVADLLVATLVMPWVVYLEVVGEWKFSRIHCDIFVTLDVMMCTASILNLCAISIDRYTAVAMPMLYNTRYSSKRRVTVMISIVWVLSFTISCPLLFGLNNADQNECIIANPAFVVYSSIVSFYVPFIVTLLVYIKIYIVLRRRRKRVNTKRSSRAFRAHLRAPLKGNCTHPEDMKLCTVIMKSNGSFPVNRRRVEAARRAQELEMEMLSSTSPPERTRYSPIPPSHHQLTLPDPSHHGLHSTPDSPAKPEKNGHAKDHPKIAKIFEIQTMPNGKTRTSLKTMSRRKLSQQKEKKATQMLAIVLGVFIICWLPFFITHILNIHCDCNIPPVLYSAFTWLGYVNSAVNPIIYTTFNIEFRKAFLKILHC

[4] = target: T2, Serine/threonine-protein kinase D2 (Homo sapiens) (UniProt Q9BZL6); assay: Selectivity interaction (ActivX KiNativ screen (kinase selectivity in THP-1 cell lysates)) EUB0000639a PRKD2; assay type: subcellular; conditions: lysate, at 0.01 µM
T2 sequence (whole entry): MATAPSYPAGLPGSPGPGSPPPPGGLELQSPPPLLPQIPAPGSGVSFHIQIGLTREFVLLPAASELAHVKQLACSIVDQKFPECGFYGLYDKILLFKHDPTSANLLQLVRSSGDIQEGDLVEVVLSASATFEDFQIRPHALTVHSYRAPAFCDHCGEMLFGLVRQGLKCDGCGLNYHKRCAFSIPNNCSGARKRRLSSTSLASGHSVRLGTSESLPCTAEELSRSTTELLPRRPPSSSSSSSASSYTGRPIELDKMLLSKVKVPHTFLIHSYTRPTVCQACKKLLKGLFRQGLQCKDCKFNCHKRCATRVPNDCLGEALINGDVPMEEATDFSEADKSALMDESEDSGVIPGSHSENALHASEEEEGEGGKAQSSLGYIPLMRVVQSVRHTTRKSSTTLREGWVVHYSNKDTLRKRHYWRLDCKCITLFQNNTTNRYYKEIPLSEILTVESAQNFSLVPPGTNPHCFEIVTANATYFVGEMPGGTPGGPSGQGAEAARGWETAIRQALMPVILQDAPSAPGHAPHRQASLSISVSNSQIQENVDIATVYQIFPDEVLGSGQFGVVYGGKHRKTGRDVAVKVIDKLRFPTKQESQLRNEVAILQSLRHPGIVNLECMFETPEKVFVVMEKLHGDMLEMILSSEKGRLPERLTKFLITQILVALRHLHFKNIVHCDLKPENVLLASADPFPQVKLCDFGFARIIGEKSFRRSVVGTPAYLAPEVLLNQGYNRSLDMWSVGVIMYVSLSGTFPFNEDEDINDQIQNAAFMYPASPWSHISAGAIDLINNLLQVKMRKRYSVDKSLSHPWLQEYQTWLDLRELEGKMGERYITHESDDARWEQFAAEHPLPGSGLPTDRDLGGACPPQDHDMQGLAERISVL

[5] = target: cAMP-dependent protein kinase catalytic subunit alpha (Homo sapiens, UniProt P17612); assay: Selectivity interaction (KinomeScan (DiscoverX)) EUB0000092b PRKACA; conditions: at 10 µM

Cell division cycle 7-related protein kinase, sequence (O00311 whole entry): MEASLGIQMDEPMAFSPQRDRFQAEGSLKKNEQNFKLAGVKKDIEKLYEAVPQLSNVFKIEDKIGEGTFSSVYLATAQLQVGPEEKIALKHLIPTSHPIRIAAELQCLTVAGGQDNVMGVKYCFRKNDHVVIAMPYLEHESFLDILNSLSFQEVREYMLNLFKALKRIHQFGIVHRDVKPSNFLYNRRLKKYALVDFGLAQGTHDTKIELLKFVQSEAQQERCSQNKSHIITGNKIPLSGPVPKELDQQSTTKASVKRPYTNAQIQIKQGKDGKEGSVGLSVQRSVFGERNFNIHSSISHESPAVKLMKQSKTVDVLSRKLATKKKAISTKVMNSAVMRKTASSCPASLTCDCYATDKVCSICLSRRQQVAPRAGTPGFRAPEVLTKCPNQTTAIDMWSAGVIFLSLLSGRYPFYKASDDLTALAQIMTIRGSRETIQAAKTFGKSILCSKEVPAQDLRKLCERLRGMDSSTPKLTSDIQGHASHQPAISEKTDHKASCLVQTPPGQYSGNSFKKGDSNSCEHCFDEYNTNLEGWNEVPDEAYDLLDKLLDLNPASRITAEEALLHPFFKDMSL

Structure (SMILES): CCc1cccc(CC)c1NC(=O)c1nn(C)c2c1CCc1cnc(Nc3ccc(C(=O)NC4CCN(C)CC4)cc3OC(F)(F)F)nc1-2
IC50 [1]: > 10 µM

Structure (SMILES): N#Cc1cccc(-c2c[nH]c3ncnc(N4CCOCC4)c23)c1
% of control [2]: 100%

Structure (SMILES): O[C@H]1CC[C@H](Nc2ncc3nc(Nc4c(F)cc(F)cc4F)n([C@H]4CCOC4)c3n2)CC1
% of control [3]: 100%

Structure (SMILES): CCC(=O)N1CCN(c2ccc(-n3c(=O)ccc4cnc5ccc(-c6cnc7ccccc7c6)cc5c43)cc2C(F)(F)F)CC1
% of control [5]: 79%

Next, values leading:

pXC50 (D(2) dopamine receptor): < 4 M
Structure (SMILES): CCn1c(-c2nc3cc(C(=O)N4CCCC(N)C4)ccc3n2C)cc2ccccc21 (stereo unspecified)

% of inhibition [4]: -7.2%
Structure (SMILES): CC[C@@H]1[C@H](F)C(=O)N[C@@H]1COc1nccc2cc(C(N)=O)c(OC)cc12 [ZIMLOVISERTIB]
